Data as given in the NIST ThermoML archive (doi:10.1016/j.jct.2015.02.019).

Assays:
[1] = 298.15 K; 100 kPa; Liquid; Vibrating tube method
[2] = refractive index (Na D-line) (dimensionless); details: 298.15 K; 101.33 kPa; Liquid; Standard Abbe refractometry
[3] = xn = mol fraction of the nth substance listed; details: 298.15 K, 100 kPa, Liquid, Vibrating tube method
[4] = excess molar enthalpy (molar enthalpy of mixing); xn = mol fraction of the nth substance listed; details: 298.15 K, 100 kPa, Liquid, Calvet calorimetry

CO [methanol]
Details	mass density [kg/m3]	refractive index
[1]	786.4	–
[2]	–	1.3261

CO [methanol] + CCCCC(=O)OC
Details	mass density [kg/m3]
[3], x2 = 0	786.4

CO [methanol] + COC=O
Details	mass density [kg/m3]
[3], x2 = 0	786.4

COC=O [methyl methanoate]
Details	mass density [kg/m3]	refractive index
[1]	966.28	–
[2]	–	1.3411

COC=O [methyl methanoate] + CCCCC(=O)OC
Details	mass density [kg/m3]
[3], x2 = 0	966.28

COC=O [methyl methanoate] + CO
Details	excess molar enthalpy, [4] [kcal/mol]	mass density, [3] [kg/m3]
x1 = 0.02	0.0179	–
x1 = 0.0337	–	795.73
x1 = 0.0487	0.0428	–
x1 = 0.0833	0.0743	808.8
x1 = 0.1225	0.105	–
x1 = 0.1557	–	826.74
x1 = 0.167	0.138	–
x1 = 0.19	–	834.77
x1 = 0.2135	0.168	–
x1 = 0.2499	–	848.14
x1 = 0.2613	0.195	–
x1 = 0.3086	0.218	–
x1 = 0.3219	–	863.26
x1 = 0.3501	0.236	–
x1 = 0.3644	0.241	–
x1 = 0.3906	–	876.73
x1 = 0.3943	0.252	–
x1 = 0.4077	0.257	–
x1 = 0.4572	0.27	–
x1 = 0.4946	–	895.61
x1 = 0.5127	0.282	–
x1 = 0.5416	–	903.58
x1 = 0.5783	0.286	–
x1 = 0.646	0.282	–
x1 = 0.6467	–	920.31
x1 = 0.7178	0.264	–
x1 = 0.7271	–	932.1
x1 = 0.7815	–	939.62
x1 = 0.7842	0.235	–
x1 = 0.8517	0.193	–
x1 = 0.8533	–	949.01
x1 = 0.8968	–	954.39
x1 = 0.9098	0.14	–
x1 = 0.9357	–	959.02
x1 = 0.9505	0.081	–
x1 = 1	–	966.28

CCCCC(=O)OC [methyl pentanoate]
Details	mass density [kg/m3]	refractive index
[1]	884.78	–
[2]	–	1.3952

CCCCC(=O)OC [methyl pentanoate] + CO
Details	excess molar enthalpy [kcal/mol]	mass density [kg/m3]
[3], x1 = 0.0235	–	793.56
[3], x1 = 0.062	–	803.85
[3], x1 = 0.0741	–	806.78
[3], x1 = 0.1314	–	818.95
[3], x1 = 0.1512	–	822.61
[3], x1 = 0.2017	–	830.95
[3], x1 = 0.248	–	837.51
[3], x1 = 0.304	–	844.36
[3], x1 = 0.3501	–	849.28
[3], x1 = 0.4499	–	858.16
[3], x1 = 0.5121	–	862.75
[3], x1 = 0.6073	–	868.69
[3], x1 = 0.6865	–	872.86
[3], x1 = 0.7472	–	875.67
[3], x1 = 0.7884	–	877.42
[3], x1 = 0.7982	–	877.81
[3], x1 = 0.8786	–	880.85
[3], x1 = 0.963	–	883.66
[3], x1 = 1	–	884.78
[4], x1 = 0.0244	0.0198	–
[4], x1 = 0.0512	0.0404	–
[4], x1 = 0.0839	0.0662	–
[4], x1 = 0.1195	0.0915	–
[4], x1 = 0.1562	0.116	–
[4], x1 = 0.192	0.138	–
[4], x1 = 0.2279	0.159	–
[4], x1 = 0.264	0.176	–
[4], x1 = 0.2993	0.196	–
[4], x1 = 0.3336	0.209	–
[4], x1 = 0.367	0.22	–
[4], x1 = 0.3861	0.226	–
[4], x1 = 0.4156	0.237	–
[4], x1 = 0.4625	0.252	–
[4], x1 = 0.5081	0.261	–
[4], x1 = 0.5867	0.262	–
[4], x1 = 0.6887	0.24	–
[4], x1 = 0.7931	0.194	–
[4], x1 = 0.8868	0.127	–
[4], x1 = 0.957	0.0574	–

CCCCC(=O)OC [methyl pentanoate] + COC=O
Details	excess molar enthalpy [kcal/mol]	mass density [kg/m3]
[3], x1 = 0.0555	–	956.19
[3], x1 = 0.104	–	948.47
[3], x1 = 0.1464	–	942.39
[3], x1 = 0.2093	–	934.27
[3], x1 = 0.2537	–	929.22
[3], x1 = 0.3106	–	923.46
[3], x1 = 0.3493	–	919.84
[3], x1 = 0.4011	–	915.46
[3], x1 = 0.4572	–	911.17
[3], x1 = 0.5	–	908.17
[3], x1 = 0.5539	–	904.69
[3], x1 = 0.6081	–	901.55
[3], x1 = 0.6522	–	899.15
[3], x1 = 0.7258	–	895.5
[3], x1 = 0.7765	–	893.24
[3], x1 = 0.836	–	890.8
[3], x1 = 0.9031	–	888.23
[3], x1 = 1	–	884.78
[4], x1 = 0.0272	0.0141	–
[4], x1 = 0.0583	0.0268	–
[4], x1 = 0.0932	0.0409	–
[4], x1 = 0.1292	0.055	–
[4], x1 = 0.172	0.0696	–
[4], x1 = 0.2104	0.0813	–
[4], x1 = 0.2533	0.0906	–
[4], x1 = 0.2946	0.0958	–
[4], x1 = 0.3096	0.0987	–
[4], x1 = 0.3486	0.101	–
[4], x1 = 0.3982	0.103	–
[4], x1 = 0.4522	0.103	–
[4], x1 = 0.5232	0.0978	–
[4], x1 = 0.6056	0.0875	–
[4], x1 = 0.6943	0.0727	–
[4], x1 = 0.7968	0.0523	–
[4], x1 = 0.8656	0.0347	–
[4], x1 = 0.93	0.0201	–
